Columns and labels:
BI-2493 [1] = compound: T1, C[C@H]1CNCCN1c1nccc(-c2noc3c2CCC[C@@]32CCCc3sc(N)c(C#N)c32)n1 [BI-2493]; settings: 5 days
Method: (§1)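 PRISM pooled barcoded cancer cell line viability screen (Broad Institute) with BI-2493 at 8 doses in threefold dilutions from 0.00457 to 10 µmol/L, 5-day treatment; curves fitted per cell line. IC50 is undefined (placeholder) for resistant lines. AUC is capped at 1, and sensitivity is reported as 1 − AUC.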

BI-2493 [2] = compound: T1, BI-2493; experiment: 1 - AUC of viability dose-response curve (sensitivity) (fraction); higher = more sensitive; settings: 5 days
Method: as §1

Row | Test System | IC50 of cell viability (BI-2493 [1]) | 1 - AUC of viability dose-response curve (BI-2493 [2])
1 | OUMS23_LARGE_INTESTINE | 8.65 µM | 0.165
2 | OV17R_OVARY | 9.34 µM | 0.044
3 | OV56_OVARY | > 10 µM | 0.0641
4 | OVCAR8_OVARY | 9.61 µM | 0.00937
5 | OVISE_OVARY | 4.17 µM | 0.105
6 | OVK18_OVARY | 1.81 µM | 0.228
7 | OVKATE_OVARY | 4.22 µM | 0.086
8 | OVTOKO_OVARY | 4.32 µM | 0.123
9 | OZ_BILIARY_TRACT | 6.81 µM | 0.0583
10 | P12ICHIKAWA_HAEMATOPOIETIC_AND_LYMPHOID_TISSUE | 3.63 µM | 0.121
11 | PA1_OVARY | 1.45 µM | 0.176
12 | PACADD119_PANCREAS | 4.59 µM | 0.169
13 | PACADD137_PANCREAS | 8.11 µM | 0.104
14 | PACADD161_PANCREAS | 5.87 µM | 0.185
15 | PANC1_PANCREAS | 4.69 µM | 0.128
16 | PANC0203_PANCREAS | 1.16 µM | 0.327
17 | PANC0327_PANCREAS | 7.84 µM | 0.138
18 | PANC0403_PANCREAS | 0.501 µM | 0.379
19 | PANC0504_PANCREAS | 1.18 µM | 0.286
20 | PANC0813_PANCREAS | 7.44 µM | 0.27
21 | PANC1005_PANCREAS | 3.98 µM | 0.121
22 | PATU8902_PANCREAS | 6.58 µM | 0.0766
23 | PATU8988S_PANCREAS | 1.14 µM | 0.197
24 | PATU8988T_PANCREAS | 4.5 µM | 0.0812

Row | Test System | IC50 of cell viability (BI-2493 [1]) | 1 - AUC of viability dose-response curve (BI-2493 [2])
25 | PC3_PROSTATE | > 10 µM | 0.0397
26 | PC14_LUNG | 3.98 µM | 0.181
27 | PEA1_OVARY | 5.96 µM | 0.0757
28 | PECAPJ15_UPPER_AERODIGESTIVE_TRACT | 5.35 µM | 0.125
29 | PECAPJ41CLONED2_UPPER_AERODIGESTIVE_TRACT | 8.74 µM | 0.0352
30 | PECAPJ49_UPPER_AERODIGESTIVE_TRACT | 5.93 µM | 0.0961
31 | PEDS005TPFAD_KIDNEY | 4.24 µM | 0.199
32 | PEDS005TSUSP_KIDNEY | 7.58 µM | 0.0633
33 | PEDS015T_SOFT_TISSUE | > 10 µM | 0.0985
34 | PF382_HAEMATOPOIETIC_AND_LYMPHOID_TISSUE | 5.53 µM | 0.102
35 | PFSK1_CENTRAL_NERVOUS_SYSTEM | > 10 µM | 0.063
36 | PK1_PANCREAS | 6.81 µM | 0.131
37 | PK8_PANCREAS | 2.17 µM | 0.161
38 | PK45H_PANCREAS | 4.3 µM | 0.168
39 | PK59_PANCREAS | 1.05 µM | 0.336
40 | PL21_HAEMATOPOIETIC_AND_LYMPHOID_TISSUE | 0.451 µM | 0.358
41 | PLCPRF5_LIVER | 5.13 µM | 0.132
42 | PMFKO14_LARGE_INTESTINE | 7.87 µM | 0.106
43 | PSN1_PANCREAS | 9.23 µM | 0.137
44 | QGP1_PANCREAS | 1.55 µM | 0.253
45 | RBE_BILIARY_TRACT | 2.47 µM | 0.243
46 | RCC10RGB_KIDNEY | 6.59 µM | 0.0818
47 | RCHACV_HAEMATOPOIETIC_AND_LYMPHOID_TISSUE | 4.98 µM | 0.198
48 | RCK8_HAEMATOPOIETIC_AND_LYMPHOID_TISSUE | 4.38 µM | 0.0825
